In patent US11834401B2, “Treating and preventing diseases by modulating cell mechanics” (THE JOHNS HOPKINS UNIVERSITY, priority 2013, dated 2023):

Legend:
HL-60 cells = assay: Micropipette aspiration cortical tension; format: cell-based, human; conditions: 500 nM, 1 hr
Description: The instrumental and experimental setups have been previously described (Effler J C, et al., 2006; Kee Y-S, et al., 2013). Micropipette aspiration assays were all carried out in growth media with 0.1% DMSO. For cortical tension measurements of Dictyostelium cells, pressure was applied to the cell cortex with a micropipette (2-3 m radius, Rp) to the equilibrium pressure (ΔP) where the length of the cell inside the pipette (Lp) was equal to Rp. The effective cortical tension (Teff) was calculated by applying the Young-Laplace equation: ΔP=2Teff(1/Rp-1/Rc), where Rc is the radius of the cell and ΔP is the equilibrium pressure when Lp=Rp (Derganc J, et al., 2000; Octtaviani E, et al., 2006). For creep tests on mammalian strains, a constant aspiration stress was applied over 60 s. The micropipette radius was 3.5-4.5 m. For quantification, the Lp/Rp ratio values was measured every two seconds and plotted as a function of time. A10.7 and HEK293 cells could only be aspirated at a low pressure range (0.15 nN/μm^2), while HPDE, ASPC-1, and HL-60 cells could be aspirated at higher pressure ranges (0.25 nN/μm^2) because they were stiffer.

Panc10.05 cells = assay: Micropipette aspiration effective cortical tension (Teff), knockdown lines; format: cell-based, human
Description: The instrumental and experimental setups have been described previously. MPA assays and RT-DC measurements were all carried out in growth media for cortical tension measurements or Leibovitz L-15 media (Gibco) when fluorescence was quantified.
Pressure was applied to the cell cortex with a micropipette (6- to 8-μm radius; Rp) to the equilibrium pressure (ΔP), where the length of the cell inside the pipette (Lp) was equal to Rp. The effective cortical tension (Teff) was calculated by applying the Young-Laplace equation: ΔP=2Teff (1/Rp−1/Rc), where Rc is the radius of the cell and ΔP is the equilibrium pressure when Lp=Rp. Images were collected with an Olympus IX81 microscope equipped with MetaMorph software and analyzed using ImageJ (rsb.info.nih.gov/ij).

ASPC-1 cells [1] = assay: Viability assay; format: cell-based, human; conditions: 50 nM, 500 nM
ASPC-1 cells [2] = assay: Transwell migration assay; format: cell-based, human; conditions: 24 hr transwell
Description: Cells were starved with serum-reduced media for 24 hr, harvested from flasks with trypsin/EDTA, washed with media containing 1% FBS, and resuspended at cell density of 2-5×10^5 cells/ml. 0.2 ml of cells were placed in the upper chamber of transwell (BD Biosciences), with 20% FBS-containing media in the lower well and incubated at 37° C. for 24 hr. Both sides of the transwell contained 4-HAP at the appropriate concentration, with final DMSO concentration at 0.0025%. The transwells were MeOH-fixed and stained with 0.5% crystal violet for 20 min, followed by counting from six random microscopic fields.

[3] = tested on: myosin IIA (phosphor-Ser1943); assay: Western blot of phospho-myosin IIA; format: cell-based, human; conditions: HPDE or ASPC-1 cells
Description: (§1) Pellet was resuspended in 100 μl lysis buffer minus Triton X-100, and both pellet and supernatant fractions were heated to 100° C. for 3 min with RNaseA. Samples were incubated at 37° C. for 30 min and then heated to 100° C. in sample buffer for 5 min. Samples were loaded on a 15% SDS-polyacrylamide gel. Western blot analyses of phospho-myosin IIA was performed on whole cell lysates of cells treated as above in lysate buffer with 10 mM NaF.

myosin IIB = molecular target: T1, myosin IIB (Homo sapiens, UniProt P35580); assay: Mammalian cell sedimentation assay; format: cell-based
T1 construct: endogenous in cells; host or cells: HEK293, HPDE
T1 sequence (P35580 whole entry): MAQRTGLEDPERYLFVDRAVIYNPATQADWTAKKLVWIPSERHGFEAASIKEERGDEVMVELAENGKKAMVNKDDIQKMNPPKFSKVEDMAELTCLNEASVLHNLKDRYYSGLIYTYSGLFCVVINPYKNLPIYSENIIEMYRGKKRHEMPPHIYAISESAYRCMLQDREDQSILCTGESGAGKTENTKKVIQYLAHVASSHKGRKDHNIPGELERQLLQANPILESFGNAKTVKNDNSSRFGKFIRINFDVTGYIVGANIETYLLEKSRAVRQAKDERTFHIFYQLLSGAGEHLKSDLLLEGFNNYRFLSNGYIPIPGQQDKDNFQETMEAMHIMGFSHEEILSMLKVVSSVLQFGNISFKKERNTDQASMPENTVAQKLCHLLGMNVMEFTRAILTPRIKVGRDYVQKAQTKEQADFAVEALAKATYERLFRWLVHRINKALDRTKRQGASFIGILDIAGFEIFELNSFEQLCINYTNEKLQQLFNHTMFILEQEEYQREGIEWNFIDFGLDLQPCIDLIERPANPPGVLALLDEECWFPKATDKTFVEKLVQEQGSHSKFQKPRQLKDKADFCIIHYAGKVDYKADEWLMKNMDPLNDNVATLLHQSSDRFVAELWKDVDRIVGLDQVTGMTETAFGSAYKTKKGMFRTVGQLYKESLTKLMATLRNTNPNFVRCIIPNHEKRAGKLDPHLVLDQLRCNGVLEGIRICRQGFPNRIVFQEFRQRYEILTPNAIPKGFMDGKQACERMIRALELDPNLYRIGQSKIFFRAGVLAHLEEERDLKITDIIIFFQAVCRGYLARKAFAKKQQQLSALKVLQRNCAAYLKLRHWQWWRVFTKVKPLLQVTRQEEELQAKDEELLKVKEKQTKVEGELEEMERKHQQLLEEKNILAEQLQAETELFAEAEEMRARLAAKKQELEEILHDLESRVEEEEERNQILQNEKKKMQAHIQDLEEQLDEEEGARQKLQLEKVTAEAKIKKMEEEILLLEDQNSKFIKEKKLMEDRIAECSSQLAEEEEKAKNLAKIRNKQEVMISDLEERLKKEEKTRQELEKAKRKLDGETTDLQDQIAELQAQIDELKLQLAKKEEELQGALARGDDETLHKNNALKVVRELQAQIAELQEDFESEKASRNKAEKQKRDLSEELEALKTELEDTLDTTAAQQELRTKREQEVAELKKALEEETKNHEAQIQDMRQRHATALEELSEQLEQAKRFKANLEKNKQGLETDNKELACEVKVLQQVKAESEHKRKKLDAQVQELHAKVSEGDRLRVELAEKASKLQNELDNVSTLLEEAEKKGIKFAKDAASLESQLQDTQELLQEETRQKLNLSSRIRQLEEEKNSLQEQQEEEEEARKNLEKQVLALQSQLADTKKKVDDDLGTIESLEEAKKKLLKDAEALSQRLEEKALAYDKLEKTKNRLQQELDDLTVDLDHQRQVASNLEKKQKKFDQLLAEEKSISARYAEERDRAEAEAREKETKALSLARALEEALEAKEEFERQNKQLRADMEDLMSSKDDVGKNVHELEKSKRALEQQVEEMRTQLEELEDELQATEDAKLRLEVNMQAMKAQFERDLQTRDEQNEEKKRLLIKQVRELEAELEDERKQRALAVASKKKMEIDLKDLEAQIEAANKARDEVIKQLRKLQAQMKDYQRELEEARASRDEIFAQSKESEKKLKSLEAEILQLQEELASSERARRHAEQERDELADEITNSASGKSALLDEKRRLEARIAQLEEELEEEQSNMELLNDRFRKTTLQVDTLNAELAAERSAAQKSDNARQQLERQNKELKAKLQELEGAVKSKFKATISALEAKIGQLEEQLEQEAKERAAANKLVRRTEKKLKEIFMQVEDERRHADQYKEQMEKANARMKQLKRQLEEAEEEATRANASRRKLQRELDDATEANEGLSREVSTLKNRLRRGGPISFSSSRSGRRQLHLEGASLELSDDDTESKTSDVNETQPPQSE
Description: (§2) Sedimentation protocol was adapted from the protocol above. 3×10^6 cells were pelleted for 5 min at 2000 rpm and washed in 1 ml PBS. The pellet was resuspended in 100 μl lysis buffer (50 mM PIPES, pH 6.8, 46 mM NaCl, 2.5 mM EGTA, 1 mM MgCl2, 1 mM ATP, 0.5% Triton X-100, and protease inhibitors—PI cocktail, PMSF, TLCK, Aprotinin). Samples were vortexed briefly and incubated on ice for 20 min, followed by centrifugation at 15,000 g for 5 min at 4° C.
as §1

myosin IIC = molecular target: T2, myosin IIC (Homo sapiens, UniProt Q7Z406); assay: Mammalian cell sedimentation assay; format: cell-based
T2 construct: endogenous in cells; host or cells: HEK293, ASPC-1, HPDE
T2 sequence (Q7Z406 whole entry): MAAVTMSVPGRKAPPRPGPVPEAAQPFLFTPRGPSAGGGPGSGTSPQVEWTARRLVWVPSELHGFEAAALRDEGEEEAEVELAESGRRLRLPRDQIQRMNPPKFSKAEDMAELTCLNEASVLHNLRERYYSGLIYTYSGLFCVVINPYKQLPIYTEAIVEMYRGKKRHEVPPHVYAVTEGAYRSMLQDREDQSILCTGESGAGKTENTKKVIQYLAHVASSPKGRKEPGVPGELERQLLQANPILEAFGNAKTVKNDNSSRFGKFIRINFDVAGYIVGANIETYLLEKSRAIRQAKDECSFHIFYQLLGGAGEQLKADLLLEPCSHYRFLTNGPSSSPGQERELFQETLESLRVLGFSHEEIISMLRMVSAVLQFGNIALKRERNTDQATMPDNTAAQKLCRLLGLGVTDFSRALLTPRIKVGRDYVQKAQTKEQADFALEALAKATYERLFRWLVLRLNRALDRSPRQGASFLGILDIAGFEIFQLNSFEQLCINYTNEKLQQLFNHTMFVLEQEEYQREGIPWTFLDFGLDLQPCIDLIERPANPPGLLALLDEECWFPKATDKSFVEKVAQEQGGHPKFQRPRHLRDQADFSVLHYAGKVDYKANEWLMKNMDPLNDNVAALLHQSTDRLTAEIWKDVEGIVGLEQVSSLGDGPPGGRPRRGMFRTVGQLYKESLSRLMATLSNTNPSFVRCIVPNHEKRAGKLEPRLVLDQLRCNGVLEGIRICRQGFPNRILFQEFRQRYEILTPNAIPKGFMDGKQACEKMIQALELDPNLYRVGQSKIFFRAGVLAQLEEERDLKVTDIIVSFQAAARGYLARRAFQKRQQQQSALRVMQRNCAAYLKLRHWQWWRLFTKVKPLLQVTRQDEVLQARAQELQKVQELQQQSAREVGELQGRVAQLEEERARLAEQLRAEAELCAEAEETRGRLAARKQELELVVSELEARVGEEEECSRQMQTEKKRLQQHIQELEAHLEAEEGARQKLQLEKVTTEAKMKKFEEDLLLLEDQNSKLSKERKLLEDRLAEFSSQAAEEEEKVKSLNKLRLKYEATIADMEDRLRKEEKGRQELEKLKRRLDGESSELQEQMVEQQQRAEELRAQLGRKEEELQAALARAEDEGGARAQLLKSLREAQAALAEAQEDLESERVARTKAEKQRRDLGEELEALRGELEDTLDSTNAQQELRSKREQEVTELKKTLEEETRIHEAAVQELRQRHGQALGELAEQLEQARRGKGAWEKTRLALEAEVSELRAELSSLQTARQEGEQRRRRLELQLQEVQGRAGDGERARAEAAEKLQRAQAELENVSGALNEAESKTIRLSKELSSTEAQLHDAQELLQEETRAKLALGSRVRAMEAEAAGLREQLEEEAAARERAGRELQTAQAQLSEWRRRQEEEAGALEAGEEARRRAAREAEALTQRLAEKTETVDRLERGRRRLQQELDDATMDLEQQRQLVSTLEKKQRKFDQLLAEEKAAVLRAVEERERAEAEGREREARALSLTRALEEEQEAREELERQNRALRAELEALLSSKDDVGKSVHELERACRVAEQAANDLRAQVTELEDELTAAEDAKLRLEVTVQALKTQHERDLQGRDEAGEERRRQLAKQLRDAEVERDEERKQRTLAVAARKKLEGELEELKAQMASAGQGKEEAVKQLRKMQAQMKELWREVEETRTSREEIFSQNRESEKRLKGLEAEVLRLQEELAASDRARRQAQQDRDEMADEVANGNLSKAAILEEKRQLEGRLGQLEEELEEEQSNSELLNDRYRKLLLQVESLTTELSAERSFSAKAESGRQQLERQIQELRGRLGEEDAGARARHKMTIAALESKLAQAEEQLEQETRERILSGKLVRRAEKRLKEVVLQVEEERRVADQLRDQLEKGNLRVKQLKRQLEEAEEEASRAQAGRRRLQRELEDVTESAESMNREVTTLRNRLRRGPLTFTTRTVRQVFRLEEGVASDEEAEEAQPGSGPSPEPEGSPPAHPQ
Description: as §2, §1

myosin IIA = molecular target: T3, myosin IIA (Homo sapiens, UniProt P35579); assay: Mammalian cell sedimentation assay; format: cell-based; conditions: human-derived cell lines
T3 construct: endogenous in cells; host or cells: HEK293, HPDE, ASPC-1
Description: as §2, §1

myosin II [4] = molecular target: T4, myosin II (Dictyostelium discoideum, UniProt P08799, T1823A/T1833A/T2029A); assay: Myosin II cortical localization by SIM, TIRF and confocal imaging; format: cell-based; conditions: myoII null cells, 500 nM, 10 minutes post-treatment
T4 construct: expressed in transfected cells; host or cells: Dictyostelium discoideum myoII null cells rescued with GFP-myosin II

myosin II [5] = molecular target: T5, myosin II (Dictyostelium discoideum, UniProt P08799, S456L); assay: as above; format: cell-based; conditions: myoII null cells, time course beyond one hour
T5 construct: expressed in transfected cells; host or cells: Dictyostelium discoideum myoII null cells rescued with GFP-myosin II

CC(=O)c1ccc(O)cc1 [4-HAP, 4-hydroxyacetophenone]
cortical tension (HL-60 cells): does not alter the cortical tension
effective cortical tension (Panc10.05 cells; myosin IIA knockdown cells): increases the cortical tension in myosin IIA knockdown cells
effective cortical tension (Panc10.05 cells; myosin IIC knockdown cells): unchanged by 4-HAP challenge
effective cortical tension (Panc10.05 cells; sh-control cells, 500-nM): increases the cortical tension of sh-control cells
viability vs DMSO control (ASPC-1 cells [1]): no difference over DMSO control
in vitro migration (ASPC-1 cells [2]): dose-dependent decrease
myosin IIA phosphorylation (phosphor-Ser1943) [3]: little effect on myosin IIA phosphorylation
assembled myosin IIB (myosin IIB; HEK293 cells, 500 nM, 1 hr): increases in assembled myosin IIB and IIC
assembled myosin IIB (myosin IIB; HPDE cells): showed a shift in assembly
assembled myosin IIC (myosin IIC; ASPC-1 cells, 500 nM, 1 hr): increases assembled myosin IIC
assembled myosin IIC (myosin IIC; HEK293 cells, 500 nM, 1 hr): increases in assembled myosin IIB and IIC
assembled myosin IIC (myosin IIC; wild type HPDE cells): increases assembled myosin IIC
assembled myosin IIA (myosin IIA): showed little change
filament formation, GFP-3XAla myosin (myosin II [4]): increasing in filament length and intensity
myosin accumulation, GFP-S456L myosin (myosin II [5]): did not show a response to 4-HAP
